Experimental data: patent EP1200093B1, “USE OF 2-AMINO-4-(4-FLUORONAPHTH-1-YL)-6-ISOPROPYLPYRIMIDINE IN THE TREATMENT OF GI DISORDERS” (priority 1999, dated 2001)
pEC50: −log10 of the molar value. Where “and” joins values, the source holds several entries; their conditions need not be identical. Equal values may be shown once.

Key:
[1] = target: T1, 5-HT receptor in human colon longitudinal muscle (Homo sapiens, UniProt P41595); test: cell-based; format: cell-based
T1 construct: Longitudinal muscle strips (2mm wide by 20mm long) were then cut from the tissue between the taenia coli; from tissue; host or cells: human colon longitudinal muscle strips, electrically stimulated
T1 sequence (P41595 whole entry): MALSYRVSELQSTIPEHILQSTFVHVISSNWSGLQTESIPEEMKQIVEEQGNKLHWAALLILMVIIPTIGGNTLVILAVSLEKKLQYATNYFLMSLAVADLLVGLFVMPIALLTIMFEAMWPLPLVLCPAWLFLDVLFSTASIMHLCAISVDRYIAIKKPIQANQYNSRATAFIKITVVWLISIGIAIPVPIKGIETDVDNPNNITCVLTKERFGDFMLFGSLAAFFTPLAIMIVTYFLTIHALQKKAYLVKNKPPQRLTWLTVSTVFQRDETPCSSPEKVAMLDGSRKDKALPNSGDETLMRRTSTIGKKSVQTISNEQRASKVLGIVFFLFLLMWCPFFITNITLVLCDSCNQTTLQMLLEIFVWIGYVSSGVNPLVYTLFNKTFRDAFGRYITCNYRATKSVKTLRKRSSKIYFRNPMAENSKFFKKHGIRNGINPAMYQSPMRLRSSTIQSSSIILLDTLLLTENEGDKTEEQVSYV

5-HT2B [2] = target: T2, 5-HT2B (Homo sapiens, UniProt P41595); conditions: human receptor, comparison data; cited from earlier work
T2 sequence (P41595 whole entry): as above

5-HT4 [3] = target: T3, 5-HT4 (Homo sapiens, UniProt Q13639); conditions: human receptor, comparison data; cited from earlier work
T3 sequence (Q13639 whole entry): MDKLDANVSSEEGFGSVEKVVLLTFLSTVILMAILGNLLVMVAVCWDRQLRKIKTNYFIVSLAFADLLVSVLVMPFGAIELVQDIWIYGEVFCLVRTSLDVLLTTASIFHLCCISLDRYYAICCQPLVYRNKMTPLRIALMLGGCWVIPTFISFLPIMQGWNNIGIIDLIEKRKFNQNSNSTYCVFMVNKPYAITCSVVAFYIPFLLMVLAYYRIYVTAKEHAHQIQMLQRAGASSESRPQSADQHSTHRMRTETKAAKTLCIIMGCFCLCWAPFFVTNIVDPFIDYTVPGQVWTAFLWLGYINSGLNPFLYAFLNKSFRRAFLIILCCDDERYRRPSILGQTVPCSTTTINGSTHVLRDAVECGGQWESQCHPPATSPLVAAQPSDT

5-HT4 [4] = target: T3, 5-HT4; conditions: * responses to 5-HT in human isolated tissues; cited from earlier work
5-HT2C = target: T4, 5-HT2C (Homo sapiens, UniProt P28335); conditions: * responses to 5-HT in human isolated tissues; cited from earlier work
T4 sequence (P28335 33-458): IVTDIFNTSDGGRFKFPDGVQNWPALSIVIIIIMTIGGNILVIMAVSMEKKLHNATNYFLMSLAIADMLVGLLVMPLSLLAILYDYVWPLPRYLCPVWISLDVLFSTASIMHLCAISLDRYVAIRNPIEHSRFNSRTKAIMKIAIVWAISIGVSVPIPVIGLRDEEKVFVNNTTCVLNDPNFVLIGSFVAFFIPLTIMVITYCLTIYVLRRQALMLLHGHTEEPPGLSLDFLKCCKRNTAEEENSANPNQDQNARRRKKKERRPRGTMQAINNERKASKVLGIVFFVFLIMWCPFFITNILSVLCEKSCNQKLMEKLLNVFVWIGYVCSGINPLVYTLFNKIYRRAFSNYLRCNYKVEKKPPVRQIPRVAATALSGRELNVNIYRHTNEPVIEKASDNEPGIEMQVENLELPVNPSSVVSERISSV

5-HT2B [5] = target: T2, 5-HT2B; conditions: * responses to 5-HT in human isolated tissues; cited from earlier work
[6] = tested on: 5-HT receptor in human colon longitudinal muscle; test: cell-based; format: cell-based

Structure (SMILES)	pEC50 [1]	mean pEC50, 5-HT2B (5-HT2B [2])	mean pEC50, 5-HT4 (5-HT4 [3])	mean pKB or pA2, 5-HT4 (5-HT4 [4])	other results
Cc1[nH]c2ccc(O)cc2c1CCN [2-Me-5-HT]	7.00	6.7	6.0	–	–
COc1ccc2[nH]cc(CCN)c2c1 [5-MeOT]	6.80	7.6	6.2	–	–
CC(N)Cc1c[nH]c2ccc(O)cc12 (stereo not drawn) [Alpha-Me-5-HT]	8.50	8.4	6.2	–	–
O=C(c1ccc(F)cc1)C1CCN(CCn2c(=O)[nH]c3ccccc3c2=O)CC1 [Ketanserin]	–	–	–	4.7*	–
CSc1ccc2c(c1)C(N1CCN(C)CC1)Cc1ccccc1S2 (stereo not shown) [Methiothepin]	–	–	–	<6.0*	–
CC[C@@H](CO)NC(=O)[C@@H]1C=C2c3cccc4c3c(cn4C)C[C@H]2N(C)C1 [Methysergide]	–	–	–	<5.0*	mean pKB or pA2, 5-HT2C (5-HT2C): 8.9*
CC(C)c1cc(-c2ccc(F)c3ccccc23)nc(N)n1 [RS127445, 2-amino-4-(4-fluoronaphth-1-yl)-6-isopropylpyrimidine]	–	–	–	–	Kb [1]: 0.316 nM and 0.355 nM; Schild analysis, slope of plot ([1]; antagonism of 5-HT, RS127445 0.3nM to 100nM): 0.93±0.17
Cn1ccc2cc3c(cc21)CCN3C(=O)Nc1cccnc1 [SB 206553]	–	–	–	–	Affinity (pKB) at the 5-HT receptor in human colon longitudinal muscle ([1]; antagonism of 5-HT in electrically-stimulated strips, at least 3 donors (RS127445: n>4 donors)): 8.5±0.1; mean pKB or pA2, 5-HT2B (5-HT2B [5]): 9.0*
Cc1cc2c(cc1Cl)N(C(=O)Nc1ccc(Oc3cccnc3C)nc1)CC2 [SB 242084]	–	–	–	–	Kb [1]: 501 nM
CN1[C@@H]2CC[C@H]1C[C@@H](OC(=O)C(CO)c1ccccc1)C2 (stereo partly shown) [atropine]	–	–	–	–	effect on electrically-induced contractile response [6]: inhibited
